Data reported in patent publication US10898536B2, “Method of inhibiting propionibacterium acnes” (Sami Labs Limited, priority 2016, dated 2021).
≈ marks a conversion by molar mass, not a printed value.

Tests used:
[1] = test system: Propionibacterium acnes (ATCC 11827); assay: Antibacterial activity by agar well diffusion method (zone of inhibition); format: cell-based; conditions: P. acnes, 48 h anaerobic, inhibition detected in all tested concentrations (10-1.25 μg/mL)
Protocol: In vitro anti-acne activity of isolated compounds 1 and 2 from the stem bark extract of Artocarpus hirsutus were evaluated against acne causing bacterium, Propionibacterium acnes. The antibacterial activity was determined by agar well diffusion method. The minimum inhibitory concentration (MIC) of the compounds were then ascertained by broth micro dilution method.
Microorganisms: Acne causing bacterium Propionibacterium acnes (ATCC 11827) was procured from American type culture collection Rockville, USA.
Media: Reinforced Clostridial Agar (Hi Media; M154) and Reinforced Clostridial broth (Hi Media; M443) were used in the experiments.
The antibacterial activities of isolated compounds were performed by agar well diffusion method. The samples were dissolved in DMSO to obtain a concentration in the range of 0.5-100 mg/mL. Propionibacterium acnes was cultured on Reinforced Clostridial Agar (RCA) M154 procured from Hi Media and incubated at 37° C. for 48 h in an anaerobic chamber providing gas mixture containing 80% nitrogen, 10% carbon dioxide and 10% hydrogen. The bacterial culture was suspended in sterile normal saline and adjusted to 1.0×10^8 CFU/mL (CLSI, M02-A11; Vol. 32 No. 1). The sterile RCA was seeded with the standardized culture of P. acnes and poured into plates. […] The diameter of zone of inhibition around the wells were measured and recorded.

[2] = test system: Propionibacterium acnes (ATCC 11827); assay: Minimum inhibitory concentration by broth micro dilution method; format: cell-based; conditions: Cutibacterium acnes, ATCC11827, P. acnes, 37° C., 48 h, anaerobic
Protocol: In vitro anti-acne activity of isolated compounds 1 and 2 from the stem bark extract of Artocarpus hirsutus were evaluated against acne causing bacterium, Propionibacterium acnes. The antibacterial activity was determined by agar well diffusion method. The minimum inhibitory concentration (MIC) of the compounds were then ascertained by broth micro dilution method. Microorganisms: Acne causing bacterium Propionibacterium acnes (ATCC 11827) was procured from American type culture collection Rockville, USA. Media: Reinforced Clostridial Agar (Hi Media; […]) and Reinforced Clostridial broth (Hi Media; […]) were used in the experiments. The minimum inhibitory concentrations (MIC) of the isolated compounds against P. acnes were determined by broth micro dilution method. Two-fold dilutions of the isolated compounds were prepared in Reinforced Clostridial broth (RCB) to obtain concentrations in the range of 0.1-2000 μg/mL. The diluted samples were loaded in 96-well micro titre plates. The samples were inoculated with the test culture of P. acnes so that the final concentration of the bacteria in each well is 1×10^5 CFU (CLSI, M11-A8; Vol. 32 No. 5). The plates were incubated under anaerobic conditions at 37° C. for 48 h and thereafter observed for inhibition of bacterial growth. The minimum concentration required for inhibiting the growth of P. acnes was considered as minimum inhibitory concentration (MIC).

[3] = Solubility in solvents (observed when recording NMR); format: physicochemical; conditions: most of the solvents except DMSO
Excerpt: In ^1H NMR spectrum, the phenolic OH (5-OH) adjacent to the carbonyl was assigned from the downfield signal at δ 13.36 ppm (70%) and 13.33 ppm (30%) and these two signals appeared due to the presence of the two conformers α and β in about 70:30 ratio. The assignment of two doublets at δ 7.15 ppm (˜30%) and 6.94 ppm (˜70%) was crucial in ^1H NMR spectrum. Nonetheless the disappearance of these two signals in D2O exchanged ^1H NMR spectrum (FIG. 5) ascertained that these two doublet signals are nothing but appeared due to the presence of the hydroxyl group (14-OH) sustaining powerful coupling with anomeric proton (14-H). Thus the signals at δ 7.15 ppm (d, ˜30%, β-OH, J=7.5 Hz) and at 6.94 ppm (d, ˜70%, α-OH, J=4.2 Hz) were assigned corresponding to the anomeric 14-OH. Similarly, though the anomeric proton (14-H) was expected to appear as a doublet however owing to further coupling with 14-OH, it appeared as two signals one as double doublets at δ 5.32 ppm (dd, ˜70%, 14-α-H, J=4.2 Hz, 2.1 Hz) and another one as triplet at 4.87 ppm (t, ˜30%, 14-β-H, J=7.8 Hz). The coupling interferences in 14-α/β-H due to 14-OH was disappeared in D2O exchanged ^1H NMR spectrum (FIG. 5) and signals were clearly appeared as doublets at δ 5.28 (d, ˜70%, 14-α-H, J=1.2 Hz) and 4.81 ppm (d, ˜30%, 14-β-H, J=8.7 Hz). As expected the signals ratio ˜70:30 were reflected in the ^13C NMR spectrum also. […]

MIC [2] [µg/mL]	solubility [3]	SMILES	zone of inhibition around the wells [1]
2 (≈ 4.58 µM)		CC(C)=CCc1c(-c2cc(O)c(O)cc2O)oc2c3c(cc(O)c2c1=O)OC(C)(C)C=C3 [Artonine E]	good inhibition
0.03 (≈ 0.0706 µM)		CCC[C@@H]1C[C@@H](C(=O)N[C@@H]([C@H]2O[C@H](SC)[C@H](O)[C@@H](O)[C@H]2O)[C@H](C)Cl)N(C)C1 [Clindamycin, reference compound]	
2 (≈ 4.44 µM)	relatively poor	CC1C(O)Oc2c(O)cc(O)c3c2C1Cc1c-3oc2c3c(cc(O)c2c1=O)OC(C)(C)C=C3 (stereo not drawn) [pyranocycloartobiloxanthone A (α & β), Pyranocycloartobiloxanthone A]	good inhibition
